Source: patent US6114517A, “Methods of modulating tumor necrosis factor α-induced expression of cell adhesion molecules” (Isis Pharmaceuticals Inc., priority 1998, dated 2000)

Key:
Assay type in all cases: cell-based, human
E-selectin = assay: TNF-α-induced E-selectin cell surface expression in HMVEC, flow cytometry; settings: for time of maximal inhibition of E-selectin induction: following antisense treatment
Protocol: (§1) Human dermal microvascular cells (HMVEC-d; Clonetics, San Diego, Calif.) were cultivated in endothelial basal media (EBM, Clonetics) supplemented with 10% fetal bovine serum (HyClone, Logan, Utah). Cells were grown in 100 mm petri dishes until 70-80% confluent, then washed with PBS and OPTI-MEM (Life Technologies, Inc., Gaithersburg, Md.). The cells were then incubated in the presence of OPTI-MEM and […] LIPOFECTIN (a 1:1 (w/w) liposome formulation of the cationic lipid N-[1-(2,3-dioleyloxy)propyl]-n,n,n-trimethylammonium chloride (DOTMA), and dioleoyl phosphotidylethanolamine (DOPE) in membrane filtered water (Life Technologies, Gaithersburg, Md.), per 100 nM of oligonucleotide followed by addition of oligonucleotide at the appropriate concentrations.
(§2) The effect of c-raf and Ha-ras antisense oligonucleotide treatment on the induction of E-selectin by TNF-α was examined. HMVEC cells were treated with either the c-raf or Ha-ras antisense compound under dose-response conditions or over time at a single dose level followed by stimulation of E-selectin expression by TNF-α for 5 hours. The cell surface expression of E-selectin was determined by flow cytometry analysis. Following oligonucleotide treatment, cells were detached from the plates and analyzed for surface expression of cell adhesion molecules using a Becton Dickinson (San Jose, Calif.) FACScan. TNF-α and FITC conjugated antibody for E-selectin were obtained from R & D Systems (Minneapolis, Minn.). PE-conjugated antibody for ICAM-1 was obtained from Pharmingen (San Diego, Calif.). VCAM-1 antibody was obtained from Santa Cruz Biotechnology, Santa Cruz, Calif. Cell surface expression was calculated using the mean value of fluorescence intensity using 3,000-5,000 cells stained with the appropriate antibody for each sample and time point. Results are expressed as percentage of control (cell surface expression induced by TNF-α in cells that were not treated with oligonucleotides) based upon mean fluorescence intensity.
The effects of c-raf, Ha-ras, and a E-selectin antisense oligonucleotide on TNF-α-induced E-selectin cell surface expression under kinetic conditions were examined. […] To test this, cells were treated, separately, with antisense oligonucleotides to E-selectin, ICAM-1 and VCAM-1 and allowed to recover prior to TNF-α treatment. […] E-selectin cell surface expression was measured by flow cytometry analysis after 5 hours of TNF-A treatment.

ICAM-1 mRNA = assay: TNF-α-induced ICAM-1 mRNA, Northern blot; settings: 48 hrs recovery, TNF-α two to three hours before RNA analysis
Protocol: (§3) For determination of mRNA levels by Northern blot, total RNA was prepared from cells by the guanidinium isothiocyanate procedure or by the Qiagen RNAEASY method (Qiagen, Santa Clarita, Calif.) at the indicated times after initiation of oligonucleotide treatment. Northern blot analysis was performed as described in Current Protocols in Molecular Biology (Ausubel, F. M., et al., (eds), 1987, Greene Publishing Assoc. and Wiley Interscience, New York). A glyceraldehyde 3-phosphate dehydrogenase (G3PDH) probe was purchased from Clontech (Palo Alto, Calif., Catalog Number 9805-1). RNA was quantified and normalized to G3PDH mRNA levels using a Molecular Dynamic PHOSPHORIMAGER (Sunnyvale, Calif.).
(§4) Northern blot analysis was carried out to examine whether c-raf and Ha-ras antisense oligonucleotides inhibit the induction of cell adhesion molecules at the transcriptional level. Cells were treated with c-raf (ISIS 12854, SEQ ID NO. 2) or Ha-ras (ISIS 15168, SEQ ID NO. 4) antisense oligonucleotides and allowed to recover for 48 hrs. TNF-α was added two to three hours prior to RNA analysis and Northern blotting was performed with probes specific for E-selectin, ICAM-1, and VCAM-1. The probe for E-selectin was obtained by PCR amplification using primers directed to HUMELAM1A (Genbank Accession No. M24736; SEQ ID NO. 18).

E-selectin mRNA = assay: TNF-α-induced E-selectin mRNA, Northern blot; settings: 48 hrs recovery, TNF-α two to three hours before RNA analysis
Protocol: as §3, §4

ICAM-1 = assay: TNF-α-induced ICAM-1 cell surface expression in HMVEC, flow cytometry; settings: for maximal inhibition of induction of ICAM-1 by TNF-α: dose response
Protocol: as §1
as §2, with “intensity. Basal expression of E-selectin and VCAM-1 is undetectable in the absence of TNF-α whereas a low level of basal expression is detectable for ICAM-1.” for “intensity.”
(§5) TNF-α induction of ICAM-1 and VCAM-1 in cells treated with c-raf and Ha-ras antisense oligonucleotides was also examined to further define the roles of c-raf and Ha-ras in cytokine signaling. Oligonucleotides were tested, using flow cytometry analysis, as described in Example 4. Results are shown in Table 6 (ICAM-1) and Table 7 (VCAM-1).

VCAM-1 = assay: TNF-α-induced VCAM-1 cell surface expression in HMVEC, flow cytometry; settings: for Maximum inhibition of induction of VCAM-1 by TNF-α: dose response
Protocol: as §1
as §2, with “intensity. Basal expression of E-selectin and VCAM-1 is undetectable in the absence of TNF-α whereas a low level of basal expression is detectable for ICAM-1.” for “intensity.”
as §5

VCAM-1 mRNA = assay: TNF-α-induced VCAM-1 mRNA, Northern blot; settings: 48 hrs recovery, TNF-α two to three hours before RNA analysis
Protocol: as §3, §4

[1] = 25 nM, TNF-α for 5 hours, % of control
[2] = 75 nM, TNF-α for 5 hours, % of control
[3] = 150 nM, TNF-α for 5 hours, % of control
[4] = time course, 12 h/20 h after oligonucleotide treatment, TNF-α 5 hours
[5] = time course, 48 h after oligonucleotide treatment, TNF-α 5 hours
[6] = time course, 72 h after oligonucleotide treatment, TNF-α 5 hours

Substance	% Cell Surface Expression (E-selectin) (E-selectin; [1])	% Cell Surface Expression (E-selectin) (E-selectin; [2])	% Cell Surface Expression (E-selectin) (E-selectin; [3])	% Cell Surface Expression (E-selectin) (E-selectin; [4])	% Cell Surface Expression (E-selectin) (E-selectin; [5])	% Cell Surface Expression (E-selectin) (E-selectin; [6])	% mRNA Expression (ICAM-1) (ICAM-1 mRNA)	% mRNA Expression (E-selectin) (E-selectin mRNA)	% mRNA Inhibition (E-selectin) (E-selectin mRNA)	% Cell Surface Expression (ICAM-1) (ICAM-1; 20 nM)	% Cell Surface Expression (ICAM-1) (ICAM-1; 50 nM)	% Cell Surface Expression (ICAM-1) (ICAM-1; 100 nM)	% Cell Surface Inhibition (ICAM-1) (ICAM-1; 100 nM)	% Cell Surface Expression (VCAM-1) (VCAM-1; 20 nM)	% Cell Surface Expression (VCAM-1) (VCAM-1; 50 nM)	% Cell Surface Inhibition (VCAM-1) (VCAM-1; 50 nM)	% Cell Surface Expression (VCAM-1) (VCAM-1; 100 nM)	% Cell Surface Inhibition (VCAM-1) (VCAM-1; 100 nM)	% mRNA Expression (VCAM-1) (VCAM-1 mRNA)	% Cell Surface Inhibition (E-selectin) (E-selectin; 25 nM, TNF-α for 5 hours)	further results
ToCoAsGsTsAsAsTsAsGsCsCsCoCoAoCoAoToGoG [ISIS 17552, reference compound]	134%	116%	116%	113%	116%	111%	101%	92%	8%	102%	100%	98%	2%	111%	97%	3%	85%	15%	111%		effect on E-selectin induction (E-selectin; dose response, HMVEC): little to no effect
ToCoCoCoGoCsCsTsGsTsGsAsCsAsToGoCoAoToT [ISIS 12854]	37%	26%	23%	58%	23%	24%	78%	22%	78%	80%	62%	57%	43%	46%	37%	63%	28%	72%	35%	63%	% Cell Surface Inhibition (E-selectin) (E-selectin; 75 nM, TNF-α for 5 hours): 74%; % Cell Surface Inhibition (E-selectin) (E-selectin; 150 nM, TNF-α for 5 hours): 77%; Maximal inhibition of E-selectin induction (E-selectin; dose response, HMVEC): approximately 80%; time of maximal inhibition of E-selectin induction (E-selectin): 48 h; % Cell Surface Inhibition (E-selectin) (E-selectin; [4]): 42%; % Cell Surface Inhibition (E-selectin) (E-selectin; [5]): 77%; % Cell Surface Inhibition (E-selectin) (E-selectin; [6]): 76%; % mRNA Inhibition (ICAM-1) (ICAM-1 mRNA): 22%; % Cell Surface Inhibition (ICAM-1) (ICAM-1; 20 nM): 20%; % Cell Surface Inhibition (ICAM-1) (ICAM-1; 50 nM): 38%; maximal inhibition of induction of ICAM-1 by TNF-α (ICAM-1): greater than 40%; % Cell Surface Inhibition (VCAM-1) (VCAM-1; 20 nM): 54%; Maximum inhibition of induction of VCAM-1 by TNF-α (VCAM-1): greater than 70%; % mRNA Inhibition (VCAM-1) (VCAM-1 mRNA): 65%
ToCoCsGsTsCsAsTsCsGsCsTsCoCoToCoAoGoGoG [ISIS 15168]	72%	47%	41%	87%	42%	42%	73%	13%	87%	81%	62%	54%	46%	70%	51%	49%	44%	56%	29%	28%	% Cell Surface Inhibition (E-selectin) (E-selectin; 75 nM, TNF-α for 5 hours): 53%; % Cell Surface Inhibition (E-selectin) (E-selectin; 150 nM, TNF-α for 5 hours): 59%; Maximal inhibition of E-selectin induction (E-selectin; dose response, HMVEC): ~60%; time of maximal inhibition of E-selectin induction (E-selectin): 48 h; % Cell Surface Inhibition (E-selectin) (E-selectin; [4]): 13%; % Cell Surface Inhibition (E-selectin) (E-selectin; [5]): 58%; % Cell Surface Inhibition (E-selectin) (E-selectin; [6]): 58%; % mRNA Inhibition (ICAM-1) (ICAM-1 mRNA): 27%; % Cell Surface Inhibition (ICAM-1) (ICAM-1; 20 nM): 19%; % Cell Surface Inhibition (ICAM-1) (ICAM-1; 50 nM): 38%; maximal inhibition of induction of ICAM-1 by TNF-α (ICAM-1): greater than 40%; % Cell Surface Inhibition (VCAM-1) (VCAM-1; 20 nM): 30%; Maximum inhibition of induction of VCAM-1 by TNF-α (VCAM-1): greater than 50%; % mRNA Inhibition (VCAM-1) (VCAM-1 mRNA): 71%
